Results published in patent US10668028B2, “Methods and use of inducing apoptosis in cancer cells” (Berg LLC, priority 2008, dated 2020).

Assays:
human melanoma tumors = experiment: histopathology analysis of human melanoma (Skmel-28) tumors induced in nude athymic mice; assay type: in vivo; conditions: topical application for 30 days, H & E or S-100 stain
Method: Skmel-28 cells were grown in 5% serum supplemented DMEM/F12 medium to 80% confluency. The cells were trypsinized and pelleted using a centrifuge. The pellets were then resuspended in cold PBS. The subjects for this study were nude athymia mice. Each subject received two injections of the cell suspension on the dorsal region of the mouse. After a visual assessment of the establishment of a tumor, treatment with a topical application would commence. After 30 days of treatment, the tumors were excised from the mice and placed in formalin. Each tumor sample was embedded in paraffin and sliced using a microtome. The slides underwent an H & E or S-100 stain. These samples were than analyzed by a pathologist to assess the vascular integrity of the tumor.

Bcl-2 protein = conditions: melanoma; cited from earlier work

In the case of `COC1=C(OC)C(=O)C(C/C=C(\C)CC/C=C(\C)CC/C=C(\C)CC/C=C(\C)CC/C=C(\C)CC/C=C(\C)CC/C=C(\C)CC/C=C(\C)CC/C=C(\C)CCC=C(C)C)=C(C)C1=O` [CoQ10, 2,3-dimethoxy-5-methyl-6-decaprenyl-1,4-benzoquinone], the “tumor pathology / vascular integrity of the tumor” value (human melanoma tumors) is listed as “disruption in tumor vasculature” and the Bcl-2 protein level (Bcl-2 protein) is listed as “downregulation of the Bcl-2 protein”.
